According to ChEMBL document CHEMBL4828727, “Antibacterial and antitumoral properties of 1,2,3-triazolo fused triterpenes and their mechanism of inhibiting the proliferation of HL-60 cells” (Eur J Med Chem, 2021):
Values after ≈ are worked out from the molar mass of the structure shown.

Legend:
CAPAN-1 = assay: cells; format: functional, cell-based; details: Homo sapiens, CAPAN-1, 72 h
Description: Antiproliferative activity against human CAPAN-1 cells assessed as inhibition of cell viability measured after 72 hrs by colorimetric MTS viability assay

[1] = Antiproliferative activity against human HAP1 cells assessed as inhibition of cell viability measured after 72 hrs by colorimetric MTS viability assay; format: functional, cell-based; details: HAP1, 72 h
HCT-116 = assay: Antiproliferative activity against human HCT-116 cells assessed as inhibition of cell viability measured after 72 hrs by colorimetric MTS viability assay; format: functional, cell-based; details: HCT-116, 72 h
NCI-H460 = assay: cells; format: functional, cell-based; details: Homo sapiens, NCI-H460, 72 h
Description: Antiproliferative activity against human NCI-H460 cells assessed as inhibition of cell viability measured after 72 hrs by colorimetric MTS viability assay

HL-60 [2] = assay: cells; format: functional, cell-based; details: Homo sapiens, HL-60, 72 h
Description: Antiproliferative activity against human HL-60 cells assessed as inhibition of cell viability measured after 72 hrs by real-time IncuCyte proliferation analysis

Z-138 = assay: cells; format: functional, cell-based; details: Homo sapiens, Z-138, 72 h
Description: Antiproliferative activity against human Z138 cells assessed as inhibition of cell viability measured after 72 hrs by real-time IncuCyte proliferation analysis

Jurkat = assay: cells; format: functional, cell-based; details: Homo sapiens, 72 h
Description: Cytotoxicity against human Jurkat cells assessed as inhibition of cell viability measured after 72 hrs by real-time IncuCyte proliferation analysis

MV4-11 = assay: cells; format: functional, cell-based; details: Homo sapiens, MV4-11, 72 h
Description: Cytotoxicity against human MV4-11cells assessed as inhibition of cell viability measured after 72 hrs by real-time IncuCyte proliferation analysis

HL-60 [3] = assay: Induction of autophagy in human HL-60 cells assessed as fold increase in MDC fluorescence intensity at 6 uM measured after 48 hrs by flow cytometry relative to control; format: functional
HL-60 [4] = assay: Induction of apoptosis in human HL-60 cells assessed as live cells at 6 uM after 48 hrs by Annexin V-PE/7-AAD dual staining based flow cytometry (reference value: 90.1 to 90.7%); format: functional
HL-60 [5] = assay: Induction of apoptosis in human HL-60 cells assessed as early apoptotic cells at 6 uM after 48 hrs by Annexin V-PE/7-AAD dual staining based flow cytometry (reference value: 1.72 to 3.25%); format: functional
HL-60 [6] = assay: Induction of apoptosis in human HL-60 cells assessed as late apoptotic cells at 6 uM after 48 hrs by Annexin V-PE/7-AAD dual staining based flow cytometry (reference value: 3.93%); format: functional
HL-60 [7] = assay: Induction of apoptosis in human HL-60 cells assessed as necrotic cells at 6 uM after 48 hrs by Annexin V-PE/7-AAD dual staining based flow cytometry (reference value: 2.64 to 3.64%); format: functional
HL-60 [8] = assay: Induction of apoptosis in human HL-60 cells assessed as live cells at 8 uM after 48 hrs by Annexin V-PE/7-AAD dual staining based flow cytometry (reference value: 90.1 to 90.7%); format: functional
HL-60 [9] = assay: Induction of apoptosis in human HL-60 cells assessed as late apoptotic cells at 8 uM after 48 hrs by Annexin V-PE/7-AAD dual staining based flow cytometry (Rvb =3.93%); format: functional
HL-60 [10] = assay: Induction of apoptosis in human HL-60 cells assessed as necrotic cells at 10 uM after 48 hrs by Annexin V-PE/7-AAD dual staining based flow cytometry (reference value: 2.64 to 3.64%); format: functional
HL-60 [11] = assay: Induction of apoptosis in human HL-60 cells assessed as late apoptotic cells at 6 uM in presence of 3-MA after 48 hrs by Annexin V-PE/7-AAD dual staining based flow cytometry (reference value: 3.12%); format: functional
HL-60 [12] = assay: Induction of apoptosis in human HL-60 cells assessed as late apoptotic cells at 8 uM in presence of 3-MA after 48 hrs by Annexin V-PE and 7AAD based flow cytometry (reference value: 3.12%); format: functional
HL-60 [13] = assay: Induction of apoptosis in human HL-60 cells assessed as necrotic cells at 8 uM in presence of 3-MA after 48 hrs by Annexin V-PE and 7AAD based flow cytometry (reference value: 2.62%); format: functional
HL-60 [14] = assay: Induction of apoptosis in human HL-60 cells assessed as early apoptotic cells at 10 uM in presence of 3-MA after 48 hrs by Annexin V-PE/7-AAD dual staining based flow cytometry (reference value: 3.14%); format: functional
HL-60 [15] = assay: Induction of apoptosis in human HL-60 cells assessed as late apoptotic cells at 10 uM in presence of 3-MA after 48 hrs by Annexin V-PE/7-AAD dual staining based flow cytometry (reference value: 3.12%); format: functional
HL-60 [16] = assay: Induction of apoptosis in human HL-60 cells assessed as necrotic cells at 10 uM in presence of 3-MA after 48 hrs by Annexin V-PE/7-AAD dual staining based flow cytometry (reference value: 2.62%); format: functional
HL-60 [17] = assay: Induction of mitochondrial membrane potential loss in human HL-60 cells at 10 uM after 48 hrs by JC-1 staining based flow cytometry (reference value: 3.49%); format: functional
Staphylococcus aureus = assay: Antibacterial activity against Staphylococcus aureus ATCC65385 assessed as growth inhibition after 20 hrs by broth microdilution method; format: functional
Escherichia coli = assay: Antibacterial activity against Escherichia coli ATCC47076 assessed as growth inhibition after 20 hrs by broth microdilution method; format: functional
HL-60 [18] = assay: Cell cycle arrest in human HL-60 cells assessed as increase in accumulation in G0/G1 phase at 6 uM incubated for 48 hrs by propidium iodide staining based flow cytometric analysis (reference value: 64.97%); format: functional
HL-60 [19] = assay: Cell cycle arrest in human HL-60 cells assessed as decrease in accumulation in S phase at 6 uM incubated for 48 hrs by propidium iodide staining based flow cytometric analysis (reference value: […]); format: functional; design: scale not given: the % may be the effect or the level left
HL-60 [20] = assay: Cell cycle arrest in human HL-60 cells assessed as accumulation of cells at G2/M phase at 6 uM incubated for 48 hrs by propidium iodide staining based flow cytometric analysis (reference value: 6.61%); format: functional
HL-60 [21] = assay: Cell cycle arrest in human HL-60 cells assessed as increase in accumulation in G0/G1 phase at 8 uM incubated for 48 hrs by propidium iodide staining based flow cytometric analysis (reference value: 64.97%); format: functional
HL-60 [22] = assay: Cell cycle arrest in human HL-60 cells assessed as decrease in accumulation in S phase at 8 uM incubated for 48 hrs by propidium iodide based flow cytometric analysis (reference value: 28.42%); format: functional; design: scale not given: the % may be the effect or the level left
HL-60 [23] = assay: Cell cycle arrest in human HL-60 cells assessed as accumulation of cells at G2/M phase at 8 uM incubated for 48 hrs by propidium iodide based flow cytometric analysis (reference value: 6.61%); format: functional
HL-60 [24] = assay: Cell cycle arrest in human HL-60 cells assessed as increase in accumulation in G0/G1 phase at 10 uM incubated for 48 hrs by propidium iodide based flow cytometric analysis (Rvb =64.97%); format: functional
HL-60 [25] = assay: Cell cycle arrest in human HL-60 cells assessed as decrease in accumulation in S phase at 10 uM incubated for 48 hrs by propidium iodide based flow cytometric analysis (reference value: 28.42%); format: functional; design: scale not given: the % may be the effect or the level left
HL-60 [26] = assay: Cell cycle arrest in human HL-60 cells assessed as accumulation of cells at G2/M phase at 10 uM incubated for 48 hrs by propidium based flow cytometric analysis (reference value: 6.61%); format: functional
HL-60 [27] = assay: Induction of autophagy in human HL-60 cells assessed as fold increase in MDC fluorescence intensity at 10 uM measured after 48 hrs by flow cytometry relative to control; format: functional

IC50 (CAPAN-1): 8.1 µM
IC50 (HCT-116): 15.2 µM
IC50 (NCI-H460): 12.5 µM
IC50 (HL-60 [2]): 1.3 µM
IC50 (Z-138): 11.3 µM
IC50 (Jurkat): 8.7 µM
IC50 (MV4-11): 12.8 µM
MIC50 (Staphylococcus aureus): 32.3 µg/mL (≈ 49.5 µM)
MIC50 (Escherichia coli): 413 µg/mL (≈ 632 µM)
SMILES: COc1ccc2[nH]cc(CCn3nnc4c3C(C)(C)[C@@H]3CC[C@]5(C)[C@H](CC=C6[C@@H]7CC(C)(C)CC[C@]7(C(=O)O)CC[C@]65C)[C@@]3(C)C4)c2c1
IC50 [1]: 4.1 µM
fold change (FC) (HL-60 [3]): 1.49
Activity (HL-60 [4]): 80%
Activity (HL-60 [5]): 3.06%
Activity (HL-60 [6]): 6.26%
Activity (HL-60 [7]): 0.501%
Activity (HL-60 [8]): 50.1%
Activity (HL-60 [9]): 34.3%
Activity (HL-60 [10]): 0.628%
Activity (HL-60 [11]): 13.7%
Activity (HL-60 [12]): 8.89%
Activity (HL-60 [13]): 2.21%
Activity (HL-60 [14]): 14.7%
Activity (HL-60 [15]): 30.8%
Activity (HL-60 [16]): 0.317%
Activity (HL-60 [17]): 60.8%
Activity (HL-60 [18]): 67.5%
Activity (HL-60 [19]): 24.83%
Activity (HL-60 [20]): 7.66%
Activity (HL-60 [21]): 73.3%
Activity (HL-60 [22]): 20.46%
Activity (HL-60 [23]): 5.02%
Activity (HL-60 [24]): 85.45%
Activity (HL-60 [25]): 11.39%
Activity (HL-60 [26]): 3.16%
fold change (FC) (HL-60 [27]): 2
